{"source": "patent EP0643060A2", "about": "“Sulfonylbenzyl-substituted benzimidazoles, process for their preparation, and their pharmaceutical use” (BAYER AG, priority 1993, dated 1995)", "key": {"[1]": {"biological_target": "T1, Angiotensin II-Rezeptor (Bos taurus, UniProt P25104)", "T1 construct": "an partiell gereinigten Membranfraktionen boviner NNR mit radioaktivem Angiotensin II; from tissue; host or cells: bovine adrenal cortex, partially purified membrane fractions", "T1 sequence (P25104 1-359)": "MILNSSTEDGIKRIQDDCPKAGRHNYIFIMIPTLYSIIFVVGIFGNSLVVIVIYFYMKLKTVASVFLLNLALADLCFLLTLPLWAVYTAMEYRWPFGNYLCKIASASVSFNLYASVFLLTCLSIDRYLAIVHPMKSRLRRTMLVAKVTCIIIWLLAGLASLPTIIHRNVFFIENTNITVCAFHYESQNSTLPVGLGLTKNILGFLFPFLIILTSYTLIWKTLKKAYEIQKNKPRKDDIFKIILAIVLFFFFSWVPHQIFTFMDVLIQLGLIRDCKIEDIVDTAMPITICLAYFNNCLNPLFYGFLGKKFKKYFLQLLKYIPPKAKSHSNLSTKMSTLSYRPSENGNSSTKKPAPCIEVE", "test": "Angiotensin II receptor binding on membrane fractions of bovine adrenal cortex (3H-angiotensin II)", "design": "species or system Rind", "details": "bovine adrenal cortex membranes, 3H-Angiotensin II 3-5 nM, 60 min, room temperature", "experimental": "Nebennierenrinden vom Rind (NNR), die frisch entnommen und sorgfältig von Mark von Kapsel befreit sind, werden in Sucrose-Lösung (0,32 M) mit Hilfe eines Ultra-Turrax (Janke & Kunkel, Staufen i.B.) zu grobem Membran-Homogenat zerkleinert und in zwei Zentrifugationsschritten zu Membranfraktionen partiell aufgereinigt. Die Untersuchungen zur Rezeptor-Bindung werden an partiell gereinigten Membranfraktionen boviner NNR mit radioaktivem Angiotensin II in einem Assay-Volumen von 0,25 ml durchgeführt, das im einzelnen die partiell gereinigten Membranen (50 - 80 µg), ³H-Angiotensin II (3-5 nM), Test-Pufferlösung (50 mM Tris, pH 7,2, 5 mM MgCl₂ sowie die zu untersuchenden Substanzen enthält. Nach einer Inkubationszeit von 60 min bei Raumtemperatur wird die nicht gebundene Radioaktivität der Proben mittels angefeuchteter Glasfaserfilter (Whatman GF/C) separiert und die gebundene Radioaktivität nach Waschung des Proteins mit eiskalter Pufferlösung (50 mM Tris/HCl, pH 7,4, 5% PEG 6000) in einem Szintillationscocktail […] gemessen. Die Analyse der Rohdaten erfolgte mit Computer-Programmen zu Ki- bzw. IC₅₀-Werten (Ki: für die verwendete Radioaktivität korrigierte IC₅₀-Werte; IC₅₀-Werte: Konzentration bei der die zu untersuchende Substanz eine 50%ige Hemmung der spezifischen Bindung des Radioliganden bewirkt)."}, "[2]": {"system": "isolierten Aortenringen von Kaninchen", "test": "Inhibition of angiotensin II-induced contraction of isolated rabbit aortic rings", "type": "cell-based", "details": "isolated rabbit aortic rings in vitro; effect at 3rd (submaximal) agonist concentration; read-out: IC50 gegen Kontraktionen, induziert durch AII", "experimental": "Kaninchen beiderlei Geschlechts werden durch Nackenschlag betäubt und entblutet, oder fallweise mit Nembutal (ca. 60 - 80 mg/kg i.v.) narkotisiert und durch Öffnung des Thorax getötet. Die Thoraxaorta wird entnommen, von anhaftendem Bindegewebe befreit, in 1,5 mm breite Ringsegmente geteilt und einzeln unter einer Anfangsbelastung von ca. 3,5 g in 10 ml Organbäder mit auf 37°C temperierter, Carbogen-begaster Krebs-Henseleit-Nährlösung folgender Zusammensetzung: 119 mmol/l NaCl; 2,5 mmol/l CaCl₂ x 2 H₂O; 1,2 mmol/l KH₂PO₄; 10 mmol/l Glucose; 4,8 mmol/l KCl; 1,4 mmol/l MgSO₄ x 7 H₂O und 25 mmol/l NaHCO₃ verbracht.\nDie Kontraktionen werden isometrisch durch Statham UC2-Zellen über Brückenverstärker (ifd Mülheim bzw. DSM Aalen) erfaßt und mittels A/D-Wandler (System 570, Keithley München) digitalisiert sowie ausgewertet. Die Durchführung von Agonistdosiswirkungskurven (DWK) erfolgt stündlich. Mit jeder DWK werden 3 bzw. 4 Einzelkonzentrationen im 4 min-Abstand in die Bäder appliziert. Nach Ende der DWK und darauffolgender Auswaschzyklen (16 mal jeweils ca. 5 sec/min mit der o.a. Nährlösung) schließt sich eine 28-minütige Ruhe- bzw. Inkubationsphase an, innerhalb derer die Kontraktionen in der Regel wieder den Ausgangswert erreichen.\nDie Höhe der im Normalfall 3. […]"}}, "note": "pIC50, pKi: −log10 of the molar value. Where two headings read alike, the source gives them in different places.", "data": [{"smiles": "CCCCc1nc2cccc(C(=O)O)c2n1Cc1ccc(S(=O)(=O)N2CCC[C@H]2C(=O)O)cc1Cl", "note": "[Beispiel 7, (S)-2-Butyl-7-carboxy-1-[3-chlor-1-(N-2-carboxypyrrolidinyl)-sulfonyl]benz[d]imidazol Bis Kaliumsalz]", "values": [{"measurement": "pKi", "setting": "[1]", "result": 6.59}]}, {"smiles": "CCCCc1nc2cccc(C(=O)OC)c2n1Cc1ccc(S(=O)(=O)N2CCCC2C(=O)O)cc1Cl", "note": "(stereo in doubt) [Beispiel 2, (S)-2-Butyl-1-[3-chlor-1-(N-2'-carboxy-pyrrolidinyl)-sulfonyl]-7-methoxycarbonyl-benz[d]imidazol]", "values": [{"measurement": "pIC50", "setting": "[2]", "result": 7.34}]}, {"smiles": "CCCCc1nc2cccc(C(=O)OC)c2n1Cc1ccc(S(=O)(=O)N2CCC[C@H]2C(=O)OC(C)(C)C)cc1F", "note": "[Beispiel 4]", "values": [{"measurement": "pKi", "setting": "[1]; read-out: Ki", "result": 6.13}]}, {"smiles": "CCCCc1nc2cccc(C(=O)O)c2n1Cc1ccc(S(=O)(=O)N2CCC[C@H]2C(=O)O)cc1Cl", "note": "[Beispiel 3, (S)-2-Butyl-7-carboxy-1-[3-chlor-1-(N-2-carboxy-pyrrolidinyl)-sulfonyl]-benz[d]imidazol]", "values": [{"measurement": "pKi", "setting": "[1]", "result": 7.32}]}]}
